Test results reported in patent publication US10065990B2, “Cyclic peptide compound, and preparation method, pharmaceutical composition and use thereof” (HANGZHOU GUANYU BIO-MEDICAL CO., LTD, priority 2013, dated 2018).
Like-named read-outs stand apart in the source and are kept apart here.

How the values were obtained:
[1] = molecular target: HDAC1 (Homo sapiens, UniProt Q13547); test: HDAC biochemical activity measurement (fluorescent substrate deacetylation);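 note: fluorogenic acetyl-lysine substrate (20 µM) deacetylated by HDAC1, then developer releases fluorophore read at 360 nm excitation and 460 nm emission, inhibitor incubated 30 min at 37 °C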
Sequence of HDAC1 (Q13547 whole entry, species assumed): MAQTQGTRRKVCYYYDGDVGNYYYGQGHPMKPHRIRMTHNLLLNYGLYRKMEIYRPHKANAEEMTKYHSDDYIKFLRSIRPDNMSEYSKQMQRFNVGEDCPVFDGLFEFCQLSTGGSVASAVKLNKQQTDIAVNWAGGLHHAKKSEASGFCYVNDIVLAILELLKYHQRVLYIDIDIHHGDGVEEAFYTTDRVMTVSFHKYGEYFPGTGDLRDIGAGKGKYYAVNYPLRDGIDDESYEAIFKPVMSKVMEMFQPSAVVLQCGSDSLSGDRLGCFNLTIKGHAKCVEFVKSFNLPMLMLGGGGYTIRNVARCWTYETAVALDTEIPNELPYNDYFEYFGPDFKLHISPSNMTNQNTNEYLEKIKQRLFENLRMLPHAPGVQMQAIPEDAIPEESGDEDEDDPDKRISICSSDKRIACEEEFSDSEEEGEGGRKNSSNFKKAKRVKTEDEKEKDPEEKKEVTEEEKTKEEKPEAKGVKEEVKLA

[2] = molecular target: HDAC3 (Homo sapiens, UniProt O15379); test: as above;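 note: fluorogenic acetyl-lysine substrate (20 µM) deacetylated by HDAC3, then developer added for 15 min at room temperature, release of fluorophore read at excitation 360 nm, emission 460 nm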
Sequence of HDAC3 (O15379 whole entry, species assumed): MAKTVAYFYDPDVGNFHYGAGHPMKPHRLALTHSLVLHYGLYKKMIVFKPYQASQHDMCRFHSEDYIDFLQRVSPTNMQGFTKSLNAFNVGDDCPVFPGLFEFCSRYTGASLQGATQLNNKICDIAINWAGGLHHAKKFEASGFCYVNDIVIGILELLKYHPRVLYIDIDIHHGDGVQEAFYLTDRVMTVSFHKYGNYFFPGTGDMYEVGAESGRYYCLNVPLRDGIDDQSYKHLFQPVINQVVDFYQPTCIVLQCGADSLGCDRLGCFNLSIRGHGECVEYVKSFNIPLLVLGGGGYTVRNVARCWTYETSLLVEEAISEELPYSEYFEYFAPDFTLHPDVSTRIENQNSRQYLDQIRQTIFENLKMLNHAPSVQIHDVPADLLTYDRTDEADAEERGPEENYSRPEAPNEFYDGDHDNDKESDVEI
Sequence of HDAC3 (Q9Y618 395-489 partner limits assumed, species assumed): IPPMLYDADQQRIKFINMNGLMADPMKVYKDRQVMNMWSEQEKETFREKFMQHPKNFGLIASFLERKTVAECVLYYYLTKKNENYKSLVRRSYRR

[3] = molecular target: T1, HDAC7 (Homo sapiens, UniProt Q8WUI4); test: as above; conditions: HDAC7; 37° C. 30 minutes;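 note: fluorogenic deacetylation assay using acetyl-lysine substrate at 20 µM, enzyme and compound incubated 30 min at 37 °C, then developer added, fluorescence read at 360/460 nm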
T1 sequence (Q8WUI4 1-952): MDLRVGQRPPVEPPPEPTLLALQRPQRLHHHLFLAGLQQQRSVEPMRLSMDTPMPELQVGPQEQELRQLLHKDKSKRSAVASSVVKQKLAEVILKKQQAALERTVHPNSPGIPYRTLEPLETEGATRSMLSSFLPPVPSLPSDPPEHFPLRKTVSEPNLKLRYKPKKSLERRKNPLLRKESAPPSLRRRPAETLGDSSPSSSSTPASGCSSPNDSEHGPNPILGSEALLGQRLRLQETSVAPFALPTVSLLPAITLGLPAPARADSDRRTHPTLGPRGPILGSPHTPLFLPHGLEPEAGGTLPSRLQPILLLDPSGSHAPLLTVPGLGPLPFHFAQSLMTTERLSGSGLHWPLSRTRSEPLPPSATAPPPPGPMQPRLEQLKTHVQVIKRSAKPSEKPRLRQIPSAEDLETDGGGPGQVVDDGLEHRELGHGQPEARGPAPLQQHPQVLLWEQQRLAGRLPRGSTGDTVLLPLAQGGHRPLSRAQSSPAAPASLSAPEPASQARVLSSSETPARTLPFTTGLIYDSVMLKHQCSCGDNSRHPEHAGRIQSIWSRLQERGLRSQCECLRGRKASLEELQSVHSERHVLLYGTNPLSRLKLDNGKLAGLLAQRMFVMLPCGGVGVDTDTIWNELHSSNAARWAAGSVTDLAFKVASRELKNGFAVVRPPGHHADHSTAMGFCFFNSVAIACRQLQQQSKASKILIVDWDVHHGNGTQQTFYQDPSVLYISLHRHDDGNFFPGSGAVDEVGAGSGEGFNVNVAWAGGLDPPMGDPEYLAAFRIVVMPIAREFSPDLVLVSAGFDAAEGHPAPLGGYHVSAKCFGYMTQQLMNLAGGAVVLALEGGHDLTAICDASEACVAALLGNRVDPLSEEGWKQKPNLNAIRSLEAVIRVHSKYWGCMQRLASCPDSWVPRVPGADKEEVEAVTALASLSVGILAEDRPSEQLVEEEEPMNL

[4] = molecular target: T2, HDAC8 (Homo sapiens, UniProt Q9BY41); test: as above; conditions: 37° C. 30 minutes
T2 sequence (Q9BY41 1-377): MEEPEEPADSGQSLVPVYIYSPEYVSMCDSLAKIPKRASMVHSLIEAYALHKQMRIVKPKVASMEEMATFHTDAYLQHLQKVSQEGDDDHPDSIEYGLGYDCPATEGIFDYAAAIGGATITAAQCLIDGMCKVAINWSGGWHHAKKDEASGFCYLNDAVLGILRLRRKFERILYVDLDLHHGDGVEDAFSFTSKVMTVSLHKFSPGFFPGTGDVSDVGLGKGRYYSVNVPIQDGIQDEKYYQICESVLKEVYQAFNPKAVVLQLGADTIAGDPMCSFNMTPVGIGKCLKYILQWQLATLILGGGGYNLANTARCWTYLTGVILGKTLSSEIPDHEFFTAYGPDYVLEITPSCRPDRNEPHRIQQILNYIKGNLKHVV

[5] = tested on: N-87 (human gastric cancer cells); test: MTT cancer cell growth inhibition; type: cell-based; conditions: MTT, 72 hours incubation, N-87 cells, read-out: GI50 N-87
Summary of the method: (§1)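 Read-out was formazan absorbance at 570 nm after a 4 h MTT step and DMSO solubilisation, converted to cell viability and fitted for GI50. Beforehand, cells (1500/well, overnight attachment) were treated with compound at 10^−5 to 10^−10 M for 72 h at 37° C.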

[6] = tested on: Hela (human cervical cancer cells); test: MTT cancer cell growth inhibition; type: cell-based; conditions: MTT
Summary of the method: as §1

[7] = tested on: KBM-5 (human chronic myelogenous leukemia); test: MTT cancer cell growth inhibition; type: cell-based; conditions: MTT, 72 hours incubation, KBM-5 cells, read-out: GI50 KBM-5
Summary of the method: as §1

[8] = tested on: HT1080 (human fibrosarcoma cells); test: MTT cancer cell growth inhibition; type: cell-based; conditions: MTT
Summary of the method: as §1

[9] = tested on: BGC-823 (human gastric cancer cells); test: MTT cancer cell growth inhibition; type: cell-based; conditions: MTT
Summary of the method: as §1

[10] = tested on: SGC-7901 (human gastric cancer cells); test: MTT cancer cell growth inhibition; type: cell-based; conditions: MTT, 72 hours incubation, SGC-7901 cells, read-out: GI50 SGC-7901
Summary of the method: as §1

[11] = tested on: KBM5-T315I (human chronic myelogenous leukemia); test: MTT cancer cell growth inhibition; type: cell-based; conditions: MTT, 72 hours incubation, KBM5-T315I cells, read-out: GI50 KBM5-T315I
Summary of the method: as §1

[12] = tested on: MDA-MB-231 (breast cancer cells); test: MTT cancer cell growth inhibition; type: cell-based
Summary of the method: as §1

[13] = tested on: Huh-7 (human hepatoma cells); test: MTT cancer cell growth inhibition; type: cell-based; conditions: MTT, 72 hours incubation, Huh-7 cells, read-out: GI50 Huh-7
Summary of the method: as §1

[14] = HDAC1, 37° C. 30 minutes, read-out: IC50 HDAC1
[15] = Homo sapiens, HeLa, 72 h, Hela cells, 72 hours incubation, read-out: GI50 Hela
[16] = Homo sapiens, HT-1080, 72 h, HT1080 cells, 72 hours incubation, read-out: GI50 HT1
[17] = Homo sapiens, BGC-823, 72 h, BGC-823 cells, 72 hours incubation, read-out: GI50 BG
[18] = Homo sapiens, MDA-MB-231, 72 h, read-out: GI50 MDA-MB-231, MTT, 72 hours incubation, MDA-MB-231 cells
[19] = Table 3, read-out: IC50 HDAC1, D (non-substituent)
[20] = read-out: IC50 HDAC3, HDAC3, 37° C. 30 minutes
[21] = Homo sapiens, HeLa, 72 h, 72 hours incubation, read-out: GI50 Hela
[22] = Homo sapiens, HT-1080, 72 h, 72 hours incubation, read-out: GI50 HT1
[23] = Homo sapiens, BGC-823, 72 h, 72 hours incubation, read-out: GI50 BG
[24] = Table 2, read-out: IC50 HDAC1, a (compounds of the present invention)
[25] = Homo sapiens, HeLa, 72 h, 72 hours, present invention, read-out: GI50 Hela, a
[26] = Homo sapiens, HT-1080, 72 h, 72 hours, present invention, read-out: GI50 HT1080, a
[27] = Homo sapiens, BGC-823, 72 h, 72 hours, present invention, read-out: GI50 BGC823, a

Structure (SMILES) | IC50 [1, 14] [nM] | IC50 HDAC7 [3] | IC50 [4] [nM] | GI50 ([5]; Homo sapiens, 72 h) [nM] | GI50 [6, 15] [nM] | GI50 ([7]; Homo sapiens, KBM5, 72 h) [nM] | GI50 [8, 16] [nM] | GI50 [9, 17] [nM] | GI50 ([10]; Homo sapiens, SGC-7901, 72 h) [nM] | GI50 ([11]; Homo sapiens, 72 h) [nM] | GI50 [12, 18] [nM] | GI50 ([13]; Homo sapiens, Huh-7, 72 h) [nM] | IC50 [2, 20] [nM] | GI50 [6, 21] [nM] | GI50 [8, 22] [nM] | GI50 [9, 23] [nM] | further results
C/C=C1\NC(=O)c2ccc(SC)c(n2)CNC(=O)C[C@@H](/C=C/CCSC(=O)CCCCCCC)OC(=O)[C@H](Cc2ccccc2)NC1=O [Compound 191] | 92 | no activity | 18 | 11 | 130 | 36 | 50 | 100 | 33 | 32 | 52 | 89 |  |  |  |  | IC50 [2]: 62 nM
C/C=C1\NC(=O)c2cccc(n2)CNC(=O)C[C@@H](/C=C/CCSC(=O)CCCC)OC(=O)[C@H](C(C)C)NC1=O [Compound 4] | 183 | no activity | 161 | 53 |  | 74 |  |  | 34 | 22 | 86 | 86 | 152 | 50 | 70 | 60 | IC50 [1, 19]: 183 nM
C/C=C1\NC(=O)c2cccc(n2)CNC(=O)C[C@@H](/C=C/CCSC(C)=O)OC(=O)[C@H](CC)NC1=O [Compound 10] | 92 | no activity | 50 | 38 |  | 61 |  |  | 23 | 24 | 98 | 51 |  | 70 | 80 | 90 | IC50 [1, 19]: 92 nM; IC50 [2]: 41 nM
C/C=C1\NC(=O)c2nc(cc(SC)n2)CNC(=O)C[C@@H](/C=C/CCSC(C)=O)OC(=O)[C@H](C(C)C)NC1=O [Compound 216] | 155 | no activity | 52 |  |  |  |  |  |  |  |  |  | 62 |  |  |  | GI50 [5]: 37 nM; GI50 ([6]; Hela cells, 72 hours incubation, read-out: GI50 Hela): 70 nM; GI50 [7]: 38 nM; GI50 ([8]; HT1080 cells, 72 hours incubation, read-out: GI50 HT1): 50 nM; GI50 ([9]; BGC-823 cells, 72 hours incubation, read-out: GI50 BG): 60 nM; GI50 [10]: 38 nM; GI50 [11]: 36 nM; GI50 ([12]; read-out: GI50 MDA-MB-231, MTT, 72 hours incubation, MDA-MB-231 cells): 62 nM; GI50 [13]: 49 nM

The next compounds have a lower IC50 [1, 14] than those just listed; values first:

IC50 [1, 14] [nM] | IC50 HDAC7 [3] | IC50 [4] [nM] | GI50 ([5]; Homo sapiens, 72 h) [nM] | GI50 [6, 15] [nM] | GI50 ([7]; Homo sapiens, KBM5, 72 h) [nM] | GI50 [8, 16] [nM] | GI50 [9, 17] [nM] | GI50 ([10]; Homo sapiens, SGC-7901, 72 h) [nM] | GI50 ([11]; Homo sapiens, 72 h) [nM] | GI50 [12, 18] [nM] | GI50 ([13]; Homo sapiens, Huh-7, 72 h) [nM] | IC50 [2, 20] [nM] | GI50 [6, 21] [nM] | GI50 [8, 22] [nM] | GI50 [9, 23] [nM] | Structure (SMILES) | further results
77 | no activity | 89 | 46 | 11 | 29 | 10 | 20 | 35 | 23 | 25 | 51 | 47 |  |  |  | C/C=C1\NC(=O)c2cccc(n2)CNC(=O)C[C@@H](/C=C/CCSC(=O)CCCCCCC)OC(=O)[C@H](Cc2cccc3ccccc23)NC1=O [Compound 239] | IC50 [1, 24]: < 100 nM; GI50 [6, 25]: 11 nM; GI50 [8, 26]: 11 nM; GI50 [9, 27]: 22 nM
13 | no activity | 38 | 75 |  | 81 |  |  | 38 | 94 | 38 | 38 | 38 | 80 | 60 | 70 | C/C=C1\NC(=O)c2cc(F)cc(n2)CNC(=O)C[C@@H](/C=C/CCSC(=O)CCCCCCC)OC(=O)[C@H](C)NC1=O [Compound 61] | IC50 ([1]; Table 3, column C, read-out: IC50 HDAC1, C (six-membered ring with substituents)): 13 nM
66 | no activity | 102 | 53 | 530 | 11 | 650 | 770 | 63 | 12 | 65 | 31 | 52 |  |  |  | CCCCCCCC(=O)SCC/C=C/[C@@H]1CC(=O)NCc2cccc(n2)C(=O)NC(CC)C(=O)N[C@@H](C(C)C)C(=O)O1 (stereo partly drawn) [Compound 245] | IC50 [1, 24]: < 100 nM; GI50 [6, 25]: 530 nM; GI50 [8, 26]: 650 nM; GI50 [9, 27]: 770 nM
